According to publication PMC11162475, “Rule-based omics mining reveals antimicrobial macrocyclic peptides against drug-resistant clinical isolates” (Nature Communications, 2024):
Values after ≈ are worked out from the molar mass of the structure shown.

Experiments:
S. aureus ATCC 25923 = assay: Lysis of S. aureus culture; assay type: cell-based, Staphylococcus aureus; settings: S. aureus ATCC 25923 culture OD600 1.0, 10×MIC, 24 h
Experimental: Growth kinetics of S. aureus
Massatide A or B was prepared in a 96-well plate at the concentration of 8×MIC, 4×MIC, 2×MIC, 1×MIC and 0.5×MIC , respectively. The MHB medium with no compound was used as a control. Then, the overnight culture of S. aureus ATCC 25923 cells was added to the medium at 1:1,000. The plate was incubated with shaking in SpectraMax iD3 (MOLECULAR DEVICES) at 30 ℃. OD600 was measured every 30 min for 36 hours. To analyze the lysis, 1mL of S. aureus ATCC 25923 culture (OD600 1.0) was treated with massatide A or vancomycin (10×MIC) for 24h. An untreated sample was used as a negative control. […]
Experiments were performed in triplicate. […]

[1] = system: Staphylococcus aureus ATCC25923; assay: Kirby-Bauer assay, zone of inhibition (agar well); assay type: cell-based; settings: S. aureus ATCC25923; 10 μL of 3.2 mg/mL DMSO stock in well of soft LB agar, 37 °C, 20 h
Experimental: (§1) The stock solution of massatide A (1) and B (1a) 3.2 mg/mL were prepared in DMSO. 40 μL overnight culture of Micrococcus luteus DSM1790 was added to 20 mL soft Luria-Bertani agar (1% agar), and then poured into a plate. 10 μL tip was used to make two wells on the plate. 10 μL massatide A (1) or B (1a) solution was added in one of the wells, while in the other well, 10 μL DMSO was added as a negative control. The plates were incubated at 30 °C for 20 h to observe the zone of inhibition. Staphylococcus aureus ATCC25923 was also used to observe the inhibition zone using a similar method. The only difference is incubating at 37 °C. Stock solutions of sistertide A1, kebanetide A1 and A2 were 3.2 mg/mL, 1.6 mg/mL and 1.6 mg/mL, respectively. The method to observe the activity of these compounds individually was the same as that of massatide.

[2] = system: Micrococcus luteus DSM1790; assay: Kirby-Bauer assay, zone of inhibition (agar well); assay type: cell-based; settings: M. luteus DSM1790; 10 μL DMSO stock (3.2 or 1.6 mg/mL) in well of soft LB agar, 30 °C, 20 h
Experimental: as §1

S. aureus ATCC259923 = assay: UDP-N-acetyl-muramic acid pentapeptide levels (HPLC-HRMS); assay type: cell-based, Staphylococcus aureus; settings: S. aureus treated with or without massatide A, comparative HPLC-HRMS, preliminary unpublished data
Source text: page 26: “Also, there is no discussion about the possible mechanism of antibacterial activity.” We have included a discussion on the proposed mode of action of […] A in the discussion section in lines 388-394 of our manuscript. “Avi(Me)Cys-containing lanthipeptides are reported to target lipid II, an essential precursor in cell wall biosynthesis. […], which shares structural similarities with cacaoidin, may potentially target lipid II or certain membrane proteins involved in peptidoglycan biosynthesis. However, a comprehensive study is necessary to fully uncover the detailed mode of action of […] A, which will be the primary focus of our ongoing research.” In our ongoing study, we have obtained some preliminary unpublished data supporting our hypothesis that […] A may inhibit cell wall biosynthesis. We assessed UDP-N-acetyl-muramic acid pentapeptide levels, an essential precursor in cell wall biosynthesis, in the S. aureus ATCC259923 strain treated with or without […] The mode of action of […] A will be further investigated in our ongoing research. […] 12. p. 16: the data that […] A1 and A2 act synergistically are not convincing - see also main comment above. […] We acknowledge the concern regarding the insufficient evidence supporting the presence of a synergistic effect in our study. As a result, we have opted to remove any conclusions relating to synergy. […]

[3] = system: Klebsiella pneumoniae 15-1; assay: microbe, parasite or virus in culture; assay type: cell-based; settings: 15-1, 20 h
Experimental: (§2) For MIC determination, Staphylococcus aureus ATCC25923, Bacillus subtilis 168, Micrococcus luteus DSM1790, Enterococcus faecalis OG1RF, Enterococcus faecium MCC2763, Escherichia coli DH5α and Pseudomonas aeruginosa PAO1 were used as indicator strains. Nisin and vancomycin were used as positive controls. A dilution series of massatide A, massatide B, vancomycin (16, 8, 4, 2, 1, 0.5, 0.25, 0.125, 0.0625, 0.0313 μg/mL) and sistertide A1, kebanetide A1, kebanetide A2, nisin (64, 32, 16, 8, 4, 2, 1, 0.5, 0.25, 0.125 μg/mL) were prepared in 96-well plate from 1–10th column. The indicator strains were added to the compound-containing well. The indicator strain culture with no antibiotics was prepared in the 11th column. The 12th column was filled with 200 μL empty MHB medium. The 96-well plate was incubated at 37 °C for 20 h (30 °C for M. luteus and B. subtilis). The OD600 was detected on MULTISKAN Sky (Thermo Scientific) and MIC values were determined. The MIC values of clinical isolates were determined by Sichuan Primed Shines Bio-tech Co., Ltd. (China) following similar protocol. Levofloxacin was used as a positive control.

[4] = system: Staphylococcus aureus ATCC25923; assay: microbe, parasite or virus in culture; assay type: cell-based; settings: ATCC25923, 20 h
Experimental: as §2

[5] = system: Enterococcus faecalis OG1RF; assay: microbe, parasite or virus in culture; assay type: cell-based; settings: OG1RF, 20 h
Experimental: as §2

[6] = system: Acinetobacter baumannii 20-1; assay: microbe, parasite or virus in culture; assay type: cell-based; settings: 20-1, 20 h
Experimental: as §2

Bacillus subtilis 168 = assay: microbe, parasite or virus in culture; assay type: cell-based; settings: 168, 20 h
Experimental: as §2

[7] = system: Acinetobacter baumannii 20-2; assay: microbe, parasite or virus in culture; assay type: cell-based; settings: 20-2, 20 h
Experimental: as §2

[8] = system: Micrococcus luteus DSM1790; assay: microbe, parasite or virus in culture; assay type: cell-based; settings: DSM1790, 20 h
Experimental: as §2

[9] = system: Enterococcus faecalis 19-1; assay: microbe, parasite or virus in culture; assay type: cell-based; settings: 19-1, 20 h
Experimental: as §2

[10] = system: Klebsiella pneumoniae ATCC700603; assay: microbe, parasite or virus in culture; assay type: cell-based; settings: ATCC700603, 20 h
Experimental: as §2

[11] = system: Enterococcus faecium MCC2763; assay: microbe, parasite or virus in culture; assay type: cell-based; settings: MCC2763, 20 h
Experimental: as §2

## C/C=C1\NC(=O)C(N(C)C)C(C)SC[C@@H](C(=O)N[C@H](CC)C(=O)N[C@H](C(=O)N[C@@H](C)C(=O)N[C@H](C)C(=O)N[C@@H](Cc2ccccc2)C(=O)N[C@@H](C)C(=O)NC2C(=O)NCC(=O)N[C@@H](Cc3ccc(O)cc3)C(=O)N[C@@H](Cc3ccccc3)C(=O)N[C@H](C)C(=O)N/C=C\SC2C)C(C)C)NC(=O)[C@@H]2CCCN2C(=O)[C@H](C(C)C)NC1=O (some centres unmarked) [Massatide A (1), massatide A]
S. aureus ATCC 25923
  lysis of the cell culture: did not result in lysis
[1]
  inhibitory activity (zone of inhibition): strong inhibitory activity
[2]
  inhibitory activity (zone of inhibition): strong inhibitory activity
S. aureus ATCC259923
  UDP-N-acetyl-muramic acid pentapeptide levels: increased levels
[3]
  MIC: >64 µg/mL
[4]
  MIC: 0.5 µg/mL (≈ 0.306 µM)
[5]
  MIC: 4 µg/mL (≈ 2.45 µM)
[6]
  MIC: 64 µg/mL (≈ 39.1 µM)
Bacillus subtilis 168
  MIC: 2 µg/mL (≈ 1.22 µM)
[7]
  MIC: 64 µg/mL (≈ 39.1 µM)
[8]
  MIC: 0.06 µg/mL (≈ 0.0367 µM)
[9]
  MIC: 4 µg/mL (≈ 2.45 µM)
[10]
  MIC: >64 µg/mL
[11]
  MIC: 2 µg/mL (≈ 1.22 µM)
